52 compounds from patent US20090047246A1, “NOVEL INHIBITORS OF HEPATITIS C VIRUS REPLICATION” (InterMune, Inc., priority 2007, published 2009) can be followed below.

The assay has as its target T1, HCV NS3 helicase (Hepatitis C virus genotype 1b, UniProt P26663).
T1 construct: full-length NS3 (1-631), purified at Array BioPharma
As to the kind of experiment: HCV Helicase Prompt FRET Assay (Example A). As to conditions: read-out: IC50 Activity. It is filed as biochemical. A digest of the protocol: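 Initial unwinding rates, monitored as FAM fluorescence gain (ex 485, em 535) over ~30 min at room temperature, gave IC50 via 4- or 5-parameter logistic fits. Reactions: 50 nM quenched duplex, 250 nM capture strand, 300 μM ATP, 5–6 nM NS3 1-631 after 5 min compound preincubation, MOPS pH 7.0 buffer, 2% DMSO.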

Setting [1] is: Table 23, compounds made using Scheme 30.
The mark [2] stands for this setting: HCV NS3 helicase, tables do not say whether Example A or Example B assay.
[3] abbreviates: Table 37, compounds made using Scheme 55.
The mark [4] stands for this setting: Table 36, compounds made using Scheme 54.
Where [5] appears, read: Table 25, compounds made using Scheme 32.
Setting [6] is: Table 34, compounds made using Schemes 51-52.
Where [7] appears, read: Table 31, compounds made using Schemes 38-45.

What is called IC50 is the concentration at which inhibition is half-maximal.

Like-named read-outs stand apart in the source and are kept apart here. A value given as a limit tells only on which side of the number the result lay.

T1 sequence (P26663 1027-1657): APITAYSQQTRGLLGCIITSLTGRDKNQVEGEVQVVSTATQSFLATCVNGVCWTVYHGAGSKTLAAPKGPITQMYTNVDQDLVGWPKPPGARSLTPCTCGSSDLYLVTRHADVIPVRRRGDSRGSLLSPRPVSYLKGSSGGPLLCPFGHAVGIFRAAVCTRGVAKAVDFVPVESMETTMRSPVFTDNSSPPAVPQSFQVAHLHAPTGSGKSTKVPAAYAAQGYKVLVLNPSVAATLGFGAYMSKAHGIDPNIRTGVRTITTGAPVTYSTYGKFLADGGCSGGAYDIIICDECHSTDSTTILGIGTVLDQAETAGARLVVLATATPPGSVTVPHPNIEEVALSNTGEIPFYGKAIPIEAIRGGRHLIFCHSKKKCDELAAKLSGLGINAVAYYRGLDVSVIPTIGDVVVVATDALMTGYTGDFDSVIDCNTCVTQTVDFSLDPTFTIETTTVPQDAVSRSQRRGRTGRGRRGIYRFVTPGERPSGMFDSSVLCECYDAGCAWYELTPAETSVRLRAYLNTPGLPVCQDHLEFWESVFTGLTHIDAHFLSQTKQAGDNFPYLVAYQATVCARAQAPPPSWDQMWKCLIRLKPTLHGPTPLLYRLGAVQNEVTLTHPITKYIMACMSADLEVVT

For `O=C(O)Cc1cn(Cc2cccc(Oc3ccc(C(F)(F)F)cc3C(F)(F)F)c2)c2ccccc12` [Example 597], under setting [1], the IC50 is under 10 µM.

Take `O=C(O)Cc1c(C(=O)c2cccc(-c3ccc(Cl)cc3Cl)c2)[nH]c2ccccc12` [Example 239]: under setting [2], the 50% inhibitory concentration (IC50) was under 10 µM.

Turning to `CCN(c1cccc(Cn2cc(CC(=O)O)c3ccccc32)c1)c1ccccc1C(F)(F)F` [Example 553], under setting [2], the IC50 is 10 to 50 µM.

As to `O=C(O)Cc1c(Cc2ccc(-c3cccc(Cl)c3Cl)cc2)[nH]c2ccccc12` [Example 290], the IC50 under setting [2] is under 10 µM.

With `O=C(O)Cc1c(Cc2cccc(-c3cccc(CO)c3)c2)[nH]c2ccccc12` [Example 300], the IC50 under setting [2] is under 10 µM.

`O=C(O)Cc1cn(Cc2cccc(Oc3ccccc3Cl)c2)c2ccccc12` [Example 475]: under setting [2], the IC50 was under 10 µM.

In the case of `O=C(O)Cc1cn(Cc2csc3ccc(Cl)cc23)c2cc(-c3ccccc3)ccc12` [Example 353], the IC50 under setting [2] was under 10 µM.

For `O=C(O)Cc1c(C(=O)c2ccc(-c3ccc(C(=O)O)cc3)cc2)[nH]c2ccccc12` [Example 266], under setting [2], the IC50 lay in the range of 10 to 50 µM.

With `COc1cccc(-c2ccc3c(CC(=O)O)cn(Cc4csc5ccc(Cl)cc45)c3c2)c1` [Example 746], the IC50 under setting [3] was over 50 µM.

Turning to `O=C(O)Cc1cn(Cc2cccc(Oc3c(F)cccc3F)c2)c2ccccc12` [Example 594], the IC50 under setting [1] was under 10 µM.

As to `CCOC(=O)Cc1cn(Cc2ccc(Oc3cccc(F)c3)cc2)c2cc(-c3cccc(OC(C)=O)c3)ccc12` [Example 603], the IC50 under setting [2] is over 50 µM.

In the case of `O=C(O)Cc1cn(Cc2cccc(Oc3ccccc3)c2)c2ccc(OCc3ccccc3)cc12` [Example 115], the half-maximal inhibitory concentration (IC50) under setting [2] is under 10 µM.

With `O=C(Cc1cn(Cc2cccc(OCc3ccccc3)c2)c2ccc(OCc3ccccc3)cc12)N1CCCC1` [Example 189], the IC50 under setting [2] fell in the range of 10 to 50 µM.

In the case of `O=C(O)Cc1c(Cc2ccc(-c3ccccc3F)cc2)[nH]c2ccccc12` [Example 286], the IC50 under setting [2] lay in the range of 10 to 50 µM.

As for `O=C(O)Cc1c(C(=O)c2cccc(-c3ccccc3Cl)c2)[nH]c2ccccc12` [Example 234], the 50% inhibitory concentration (IC50) under setting [2] lay in the range of 10 to 50 µM.

As for `Cc1sc2ccc(Cl)cc2c1Cn1cc(CC(=O)O)c2ccc(Br)cc21` [Example 777], the IC50 under setting [4] was 10 to 50 µM.

Turning to `CC(C)N(c1cccc(Cn2cc(CC(=O)O)c3ccccc32)c1)c1ccccc1Cl` [Example 554], the half-maximal inhibitory concentration (IC50) under setting [2] is under 10 µM.

Turning to `Cc1cc([N+](=O)[O-])ccc1-n1c(Cc2csc3ccc(Cl)cc23)c(CC(=O)O)c2ccc(OCc3ccccc3)cc21` [Example 371], under setting [2], the IC50 is under 10 µM.

For the compound `CC(C)c1ccc(Cn2c(C(=O)Nc3cccnc3)c(CC(=O)O)c3ccccc32)cc1` [Example 463], the half-inhibitory concentration (IC50) under setting [2] was in the range of 10 to 50 µM.

`O=C(O)Cc1cn(Cc2ccc(Oc3ccc(F)cc3F)cc2)c2ccccc12` [Example 585]: the IC50 under setting [2] is under 10 µM.

Turning to `CC(C)c1ccc(Cn2c(C(=O)NCc3cccc(-c4ccccc4)c3)c(CC(=O)O)c3cc(Br)ccc32)cc1` [Example 445], the half-maximal inhibitory concentration (IC50) under setting [2] was under 10 µM.

With `CCOc1ccc2c(CC(=O)O)cn(Cc3csc4ccc(Cl)cc34)c2c1` [Example 349], under setting [2], the half-maximal inhibitory concentration (IC50) lay within 10 to 50 µM.

As to `O=C(O)Cc1c(Cc2ccc(-c3ccccc3)cc2)n(CC2CC2)c2ccccc12` [Example 278], the IC50 under setting [2] is under 10 µM.

Regarding `CC(C)c1ccc(Cn2c(C(=O)NCc3nc4ccccc4[nH]3)c(CC(=O)O)c3cc(Br)ccc32)cc1` [Example 448], under setting [2], the IC50 was under 10 µM.

Consider `O=C(O)Cc1c(Cc2ccc(-c3ccccc3)cc2)[nH]c2ccccc12` [Example 295], for which the IC50 under setting [2] is under 10 µM.

For the compound `O=C(O)Cc1c(C(=O)c2ccccc2)n(Cc2csc3ccc(Cl)cc23)c2ccccc12` [Example 217], the IC50 under setting [2] was under 10 µM.

For the compound `O=C(O)Cc1c(C(=O)Cc2ccccc2Br)n(Cc2ccccc2)c2ccccc12` [Example 260], under setting [2], the half-inhibitory concentration (IC50) is under 10 µM.

For the compound `N#CCc1cn(Cc2csc3ccc(Cl)cc23)c2ccc(CNS(=O)(=O)c3ccccc3)cc12` [Example 209], the half-inhibitory concentration (IC50) under setting [2] lay in the range of 10 to 50 µM.

For `CCOC(=O)Cc1cn(Cc2ccc(Oc3ccc(C(F)(F)F)cc3)cc2)c2cc(-c3cc(N)cc(N)c3)ccc12` [Example 608], under setting [5], the IC50 fell in the range of 10 to 50 µM.

`Cc1cc([N+](=O)[O-])ccc1-n1cc(C=CC(=O)O)c2cc(OCc3ccccc3)ncc21` [Example 333]: the IC50 under setting [2] is over 50 µM.

`O=C(O)Cc1cn(CCCc2ccccc2)c2ccc(Br)cc12` [Example 104]: the 50% inhibitory concentration (IC50) under setting [2] lay in the range of 10 to 50 µM.

Consider `O=C(O)Cc1c(C(=O)c2ccc(-c3ccccc3Cl)cc2)[nH]c2ccc(Br)cc12` [Example 275], for which, under setting [2], the IC50 is under 10 µM.

Turning to `Nc1cc(N)cc(-c2ccc3c(CC(=O)O)cn(Cc4c(-c5cccc(Cl)c5)sc5ccccc45)c3c2)c1` [Example 715], under setting [4], the IC50 was under 10 µM.

Take `CN(c1ccc(C(F)(F)F)cc1)c1cccc(Cn2cc(CC(=O)O)c3ccccc32)c1` [Example 531]: the IC50 under setting [2] was under 10 µM.

In the case of `Cc1cc([N+](=O)[O-])ccc1-n1cc(C(NC(=O)c2ccccc2)C(=O)O)c2ccccc21` (stereo not shown) [Example 670], under setting [6], the IC50 was in the range of 10 to 50 µM.

As to `CN(c1cccc(Cn2cc(CC(=O)O)c3ccccc32)c1)c1ccc(Cl)c(Cl)c1` [Example 541], the IC50 under setting [2] is under 10 µM.

Consider `O=C(O)Cc1cn(Cc2csc3ccc(Cl)cc23)c2ccccc12` [Example 121], for which the 50% inhibitory concentration (IC50) under setting [2] is 10 to 50 µM.

In the case of `CC(C)c1ccc(Cn2cc(C(Cc3ccccc3)C(=O)O)c3ccccc32)cc1` (stereo not shown) [Example 410], the 50% inhibitory concentration (IC50) under setting [2] was under 10 µM.

Turning to `O=C(O)Cc1cn(Cc2cccc(Oc3cc(Cl)ccc3Cl)c2)c2ccccc12` [Example 599], under setting [1], the IC50 was in the range of 10 to 50 µM.

Take `CSc1ccc2c(c1)c(CC(N)=O)cn2Cc1cccc(OCc2ccccc2)c1` [Example 201]: the concentration for half-maximal inhibition (IC50) under setting [2] is under 10 µM.

As to `CC(C)(C)ONC(=O)Cc1cn(Cc2csc3ccc(Cl)cc23)c2cc(-c3cc(N)cc(N)c3)ccc12` [Example 683], the IC50 under setting [6] was in the range of 10 to 50 µM.

In the case of `O=C(O)Cc1cn(Cc2ccc(Oc3ccc(Cl)cc3Cl)cc2)c2ccccc12` [Example 589], under setting [2], the IC50 is under 10 µM.

For `CCOC(=O)Cc1cn(Cc2ccc(Oc3ccc(C(F)(F)F)cc3)cc2)c2cc(-c3cccc(OC(C)=O)c3)ccc12` [Example 606], the 50% inhibitory concentration (IC50) under setting [2] lay within 10 to 50 µM.

On to `N#Cc1ccc(-c2ccc3c(CC(=O)O)cn(Cc4csc5ccc(Cl)cc45)c3c2)cc1` [Example 757], for which, under setting [3], the IC50 is 10 to 50 µM.

For the compound `O=C(O)C(Cc1csc2ccc(Cl)cc12)c1cn(Cc2csc3ccc(Cl)cc23)c2cc(Br)ccc12` (stereo not shown) [Example 360], the concentration for half-maximal inhibition (IC50) under setting [2] was under 10 µM.

Consider `Nc1nc(-c2ccc3c(CC(=O)O)cn(Cc4csc5ccc(Cl)cc45)c3c2)ncc1F` [Example 633], for which, under setting [7], the 50% inhibitory concentration (IC50) fell in the range of 10 to 50 µM.

For `CN(c1cccc(Cn2cc(CC(=O)O)c3ccccc32)c1)c1c(Cl)cccc1Cl` [Example 540], under setting [2], the 50% inhibitory concentration (IC50) was under 10 µM.

As for `CCNc1nc(NCC)nc(-c2ccc3c(CC(=O)O)cn(Cc4csc5ccc(Cl)cc45)c3c2)n1` [Example 632], the half-maximal inhibitory concentration (IC50) under setting [7] was under 10 µM.

`O=C(O)Cc1cn(Cc2csc3ccc(Cl)cc23)c2cc(-c3ccc4nn[nH]c4c3)ccc12` [Example 669]: where the note is “Table 33, compounds made using Scheme 50”, the IC50 is 10 to 50 µM.

As to `CCOC(=O)Cc1cn(Cc2c(CC)sc3ccc(Cl)cc23)c2cc(-c3cc([N+](=O)[O-])cc([N+](=O)[O-])c3)ccc12` [Example 720], under setting [4], the IC50 is over 50 µM.

For the compound `Cn1c(Cc2ccc(-c3ccccc3)cc2)c(CC(=O)O)c2ccccc21` [Example 276], the IC50 under setting [2] was in the range of 10 to 50 µM.

Take `CCOC(=O)Cc1cn(Cc2ccc(Oc3cccc(Cl)c3)cc2)c2cc(-c3cc(N)cc(N)c3)ccc12` [Example 612]: the concentration for half-maximal inhibition (IC50) under setting [5] was under 10 µM.
